From US20230072421A1, “TARGETED RADIOPHARMACEUTICALS FOR THE DIAGNOSIS AND TREATMENT OF PROSTATE CANCER” (Bayer AS, priority 2019, published 2023)

Legend:
[1] = Biodistribution study in LNCaP tumor-bearing mice (Th227 counted in organs); format: in vivo, SCID mice; settings: 1500 kBq/kg
Experimental: (§1) SCID mice were randomly assigned to experimental groups, ten animals per group (efficacy) or n=3-5 per time point of biodistribution study. At the initiation of the study, a testosterone pellet was subcutaneously transplanted, the animals were shaved, tattooed and each cage was labeled with the cage number, study number and number of animals per cage.
(§2) LNCaP human prostate cancer cells were cultured as described according to the supplier's protocols. Cells were harvested for transplantation in a subconfluent (70%) state. Animals were injected with 5×10^6 LNCaP cells suspended in 100% Matrigel subcutaneously into the flank of the mice.
Biodistribution study: When tumors reached a predetermined size in mice of ˜50 mm^2 animals were randomized into groups (n=3 animals/time point) and the radioactive compound was once applied intravenously. The i.v. application volume was 100 μl/mice.
At the predetermined time point, n=3 animals were sacrificed, the organs removed, weight and measured in a Germanium detector to count the Th227 in the sample.

[2] = system: LNCaP human prostate cancer cells; test: LNCaP xenograft efficacy study (T/C tumor area); format: in vivo, SCID mice
Experimental: as §1, §2
Efficacy study: When tumors reached a predetermined size in mice of 35-50 mm^2 animals were randomized into treatment and control groups (n=10 animals/group) and treatment with the defined radioactive dose was started. The i.v. application volume was 100 μl/mice.
Tumor response was assessed by determination of the tumor area (product of the longest diameter and its perpendicular) using a caliper. The animal body weight was monitored as a measure for treatment-related toxicity. Measurement of tumor area and body weight was performed two to three times weekly.
Animals were sacrificed when showing signs of toxicity (>20% body weight loss) or when tumors reached a size of approximately 200 mm^2.
Tumor growth inhibition is presented as T/C ratio (Treatment/Control) calculated with tumor areas when the vehicle control group had to be closed.

VCaP cells = test: Cell proliferation assay (CellTiter-Glo, 5-day exposure), VCaP; format: cell-based; settings: 4000 cells/well, Th-227 labelled at 375 kBq/nmol, mean of 1 to 6 experiments
Experimental: (§3) Inhibition of cell proliferation of Thorium-227 labeled PMSA SMOL ligands was tested different prostate cancer cell lines, namely 22Rv1, VCaP, C4-2 (all from ATCC, Manassas, Va., USA) and LNCaP (DMSZ, Braunschweig). Cells were seeded using the following conditions in 384 well plates (Corning) in 30 μl of growth media at 4000 cells/well for VCaP cells and 1000 cells/well for 22Rv1, C4-2 and LNCaP cells.
(§4) Cells were cultivated an incubator at 37° C. and 5% C02 over night. […] In sister plates cell viability at treatment start (d=0) was determined using CellTiter-Glo® assay (CTG, Promega, Madison, Wis., USA), by adding 30 μl per well CTG solution, incubation for 10 min and reading of Luminescence in a PheraStarFSX instrument (BMG Labtech). After a 5-day exposure in the presenced of test compounds, cell viability of treated or untreated control cells was determined again using CellTiter-Glo® assay (Promega, Madison, Wis., USA). […] The DRC software is a Biobook Spreadsheet that was developed by Bayer AG and Bayer Business Services on the IDBS E-Workbook Suite platform (IDBS: ID Business Solutions Ltd., Guildford, UK).

22Rv1 cells = test: Cell proliferation assay (CellTiter-Glo, 5-day exposure), 22Rv1; format: cell-based; settings: 22Rv1, 1000 cells/well, Th-227 labelled at 375 kBq/nmol, mean of 1 to 6 experiments
Experimental: as §3, §4

C4-2 cells = test: Cell proliferation assay (CellTiter-Glo, 5-day exposure), C4-2; format: cell-based; settings: C4-2, 1000 cells/well, Th-227 labelled at 375 kBq/nmol, mean of 1 to 6 experiments
Experimental: as §3, §4

With `O=C([O-])CN1CCN(CC(=O)[O-])CCN(CC(=O)NCc2ccc(C(=O)N[C@@H](Cc3ccc4ccccc4n3)C(=O)NCCCC[C@H](NC(=O)N[C@@H](CCC(=O)O)C(=O)O)C(=O)O)nc2)CCN(CC(=O)[O-])CC1.[227Th+4]` [Example 34-B-227Th, {N^6-[3-(quinolin-2-yl)-N-{5-[(2-{4,7,10-tris[(carboxy-kappaO)methyl]-1,4,7,10-tetraazacyclododecan-1-yl-kappa^4N^1,N^4,N^7,N^10}acetamido)methyl]pyridine-2-carbonyl}-L-alanyl]-N^2-{[(1S)-1,3-dicarboxypropyl]carbamoyl}-L-lysinato(4−)}(^227Th)Thorate(1−)] the Th-227 in Blood ([1]; 0.25 h) was 1.78% ID Th-227/g organ, the Th-227 in Liver ([1]; 0.25 h) was 1.69% ID Th-227/g organ and the Th-227 in Spleen ([1]; 0.25 h) was 17.32% ID Th-227/g organ. For the same compound, the Th-227 in Tumor ([1]; 0.25 h) was 6.33% ID Th-227/g organ, the Th-227 in bone ([1]; 0.25 h) was 1.66% ID Th-227/g organ and the Th-227 in brain ([1]; 0.25 h) was 0.12% ID Th-227/g organ. For the same compound, the Th-227 in kidney ([1]; 0.25 h) was 62.53% ID Th-227/g organ, the “Th-227 in large intestine” value ([1]; 0.25 h) was 0.67% ID Th-227/g organ and the Th-227 in lung ([1]; 0.25 h) was 4.04% ID Th-227/g organ. The Th-227 in muscle ([1]; 0.25 h) was 1.02% ID Th-227/g organ, the Th-227 in prostate ([1]; 0.25 h) was 0.00% ID Th-227/g organ and the “Th-227 in salivary glands” value ([1]; 0.25 h) was 3.14% ID Th-227/g organ. For the same compound, the “Th-227 in small intestine” value ([1]; 0.25 h) was 1.36% ID Th-227/g organ, the “Accumulation in the tumor (in words)” value [1] was “good and stable accumulation in the tumor” and the Th-227 in Blood ([1]; 1 hr) was 0.58% ID Th-227/g organ. The Th-227 in Liver ([1]; 1 hr) was 0.88% ID Th-227/g organ, the Th-227 in Spleen ([1]; 1 hr) was 19.69% ID Th-227/g organ and the Th-227 in Tumor ([1]; 1 hr) was 9.15% ID Th-227/g organ. The Th-227 in bone ([1]; 1 hr) was 1.27% ID Th-227/g organ, the Th-227 in brain ([1]; 1 hr) was 0.02% ID Th-227/g organ and the Th-227 in kidney ([1]; 1 hr) was 69.22% ID Th-227/g organ. The “Th-227 in large intestine” value ([1]; 1 hr) was 0.45% ID Th-227/g organ, the Th-227 in lung ([1]; 1 hr) was 2.79% ID Th-227/g organ and the Th-227 in muscle ([1]; 1 hr) was 0.54% ID Th-227/g organ. The Th-227 in prostate ([1]; 1 hr) was 0.62% ID Th-227/g organ, the “Th-227 in salivary glands” value ([1]; 1 hr) was 1.75% ID Th-227/g organ and the “Th-227 in small intestine” value ([1]; 1 hr) was 0.64% ID Th-227/g organ. For the same compound, the Th-227 in Blood ([1]; 4 hr) was 0.07% ID Th-227/g organ, the Th-227 in Liver ([1]; 4 hr) was 0.55% ID Th-227/g organ and the Th-227 in Spleen ([1]; 4 hr) was 11.57% ID Th-227/g organ. It also gave a Th-227 in Tumor ([1]; 4 hr) of 7.00% ID Th-227/g organ, a Th-227 in bone ([1]; 4 hr) of 1.44% ID Th-227/g organ and a Th-227 in brain ([1]; 4 hr) of 0.00% ID Th-227/g organ. For the same compound, the Th-227 in kidney ([1]; 4 hr) was 65.52% ID Th-227/g organ, the “Th-227 in large intestine” value ([1]; 4 hr) was 0.79% ID Th-227/g organ and the Th-227 in lung ([1]; 4 hr) was 1.48% ID Th-227/g organ. The Th-227 in muscle ([1]; 4 hr) was 0.41% ID Th-227/g organ, the Th-227 in prostate ([1]; 4 hr) was 4.08% ID Th-227/g organ and the “Th-227 in salivary glands” value ([1]; 4 hr) was 1.05% ID Th-227/g organ. The “Th-227 in small intestine” value ([1]; 4 hr) was 1.13% ID Th-227/g organ, the Th-227 in Blood ([1]; 24 h) was 0.01% ID Th-227/g organ and the Th-227 in Liver ([1]; 24 h) was 0.23% ID Th-227/g organ. For the same compound, the Th-227 in Spleen ([1]; 24 h) was 1.21% ID Th-227/g organ, the Th-227 in Tumor ([1]; 24 h) was 10.56% ID Th-227/g organ and the Th-227 in bone ([1]; 24 h) was 1.21% ID Th-227/g organ. The Th-227 in brain ([1]; 24 h) was 0.00% ID Th-227/g organ, the Th-227 in kidney ([1]; 24 h) was 21.02% ID Th-227/g organ and the “Th-227 in large intestine” value ([1]; 24 h) was 0.10% ID Th-227/g organ. The Th-227 in lung ([1]; 24 h) was 0.27% ID Th-227/g organ, the Th-227 in muscle ([1]; 24 h) was 0.00% ID Th-227/g organ and the Th-227 in prostate ([1]; 24 h) was 0.00% ID Th-227/g organ. For the same compound, the “Th-227 in salivary glands” value ([1]; 24 h) was 0.11% ID Th-227/g organ, the “Th-227 in small intestine” value ([1]; 24 h) was 0.08% ID Th-227/g organ and the Th-227 in Blood ([1]; 96 h) was 0.00% ID Th-227/g organ. For the same compound, the Th-227 in Liver ([1]; 96 h) was 0.19% ID Th-227/g organ, the Th-227 in Spleen ([1]; 96 h) was 0.43% ID Th-227/g organ and the Th-227 in Tumor ([1]; 96 h) was 9.97% ID Th-227/g organ. For the same compound, the Th-227 in bone ([1]; 96 h) was 1.08% ID Th-227/g organ, the Th-227 in brain ([1]; 96 h) was 0.00% ID Th-227/g organ and the Th-227 in kidney ([1]; 96 h) was 9.71% ID Th-227/g organ. The “Th-227 in large intestine” value ([1]; 96 h) was 1.44% ID Th-227/g organ, the Th-227 in lung ([1]; 96 h) was 0.13% ID Th-227/g organ and the Th-227 in muscle ([1]; 96 h) was 0.00% ID Th-227/g organ. The Th-227 in prostate ([1]; 96 h) was 0.00% ID Th-227/g organ, the “Th-227 in salivary glands” value ([1]; 96 h) was 0.10% ID Th-227/g organ and the “Th-227 in small intestine” value ([1]; 96 h) was 0.25% ID Th-227/g organ. For the same compound, the T/Carea ([2]; Example III, day 64 after start of therapy, single treatment 1.5 MBq/kg) was 0.23, the T/Carea ([2]; Example IV, day 36 after start of therapy, once 1 MBq/kg) was 0.66 and the “Proliferation assay on cancer cell lines by TTCs Default Pivot #3 IC50 [kBq/mL] VCap 4000cells 375kBq/nmol (mean)” value (VCaP cells) was 1.75 kBq/mL. For the same compound, the “Proliferation assay on cancer cell lines by TTCs Default Pivot #3 IC50 [kBq/mL] 22Rv1 1000cells 375kBq/nmol (mean)” value (22Rv1 cells) was 0.76 kBq/mL and the “Proliferation assay on cancer cell lines by TTCs Default Pivot #3 IC50 [kBq/mL] C4-2 1000cells 375kBq/nmol (mean)” value (C4-2 cells) was 0.63 kBq/mL.
